In patent US20040092485A1, “Ascorbic acid 2-phosphate metal salt with low calcium content” (priority 2001, published 2004):
Counter-ions that a name gives are not always drawn.

Assays:
[1] = In-solution Stability Test 1 (clouding by eye in citrate/citric acid, glycerol·1,3-butylene glycol·ethanol, water solution); assay type: physicochemical; set-up: key to In-solution Stability Test 1 Room Temperature (20° C.) / In-solution Stability Test 1 50° C.: A: No clouding; B: Clouded; Distinguished Clouding; settings: for In-solution Stability Test 1 50° C.: left standing at 50° C. for 10 days; for In-solution Stability Test 1 50° C. / In-solution Stability Test 1 Room Temperature (20° C.): 2 g sample, 16 g mixed solution, clouding state observed by eye; for In-solution Stability Test 1 Room Temperature (20° C.): left standing at room temperature (20° C.) for 1 month
Method: In-solution Stability Test 1
(§1) Into a 200 ml-volume Erlenmeyer flask, 2 g of a sample (APM), 0.4 g of sodium citrate dihydrate and 0.05 g of citric acid were charged. Thereto, 16 g of glycerol·1,3-butylene glycol·ethanol mixed solution (volume ratio: 3:5:8) was added and the resulting solution was stirred for 30 minutes. Thereto, 82 g of pure water was added and the resulting solution was further stirred for 2 hours. After filtering this solution through a filter, a half amount was left standing at room temperature (20° C.) for 1 month and the remaining half amount was left standing at 50° C. for 10 days.

[2] = In-solution Stability Test 2 (clouding by eye in citrate/citric acid, glycerol·1,3-butylene glycol·ethanol, water solution); assay type: physicochemical; set-up: key to In-solution Stability Test 2 Room Temperature (20° C.) / In-solution Stability Test 2 50° C.: A: No clouding; B: Clouded; Distinguished Clouding; settings: for In-solution Stability Test 2 50° C.: left standing at 50° C. for 10 days; for In-solution Stability Test 2 50° C. / In-solution Stability Test 2 Room Temperature (20° C.): 2 g sample, 15 g mixed solution, clouding state observed by eye; for In-solution Stability Test 2 Room Temperature (20° C.): left standing at room temperature (20° C.) for 1 month
Method: In-solution Stability Test 2
as §1, with “charged. Thereto, 15 g of” for “charged. Thereto, 16 g of”, “3:5:8) was charged and the” for “3:5:8) was added and the”, “added and further stirred” for “added and the resulting solution was further stirred”

[3] = temperature not specified in the sentence (whole test)

O=C1O[C@H]([C@@H](O)CO)C(O)=C1OP(=O)([O-])[O-].[Mg+2] [Comparative Example 2, L-ascorbic acid 2-phosphate magnesium salt]
clouding in in-solution stability test 1 ([1]; 50° C.): more distinguished clouding was observed
In-solution Stability Test 1 50° C. [1]: C
In-solution Stability Test 1 Room Temperature (20° C.) [1]: B
clouding in in-solution stability test 1 ([1]; room temperature (20° C.)): clouding was observed
clouding in in-solution stability test 2 ([2]; 50° C.): distinguished clouding was observed
In-solution Stability Test 2 50° C. [2]: C
In-solution Stability Test 2 Room Temperature (20° C.) [2]: C
clouding in in-solution stability test 2 ([2]; room temperature (20° C.)): distinguished clouding was observed

O=C1O[C@H]([C@@H](O)CO)C(O)=C1OP(=O)(O)O [Example 1, L-ascorbic acid 2-phosphate magnesium salt]
In-solution Stability Test 1 50° C. [1]: A
In-solution Stability Test 1 Room Temperature (20° C.) [1]: A
clouding in in-solution stability test 1 [1, 3]: clouding was not observed
In-solution Stability Test 2 50° C. [2]: A
In-solution Stability Test 2 Room Temperature (20° C.) [2]: A
clouding in in-solution stability test 2 [2, 3]: clouding was not observed

O=C1O[C@H]([C@@H](O)CO)C(O)=C1OP(=O)([O-])[O-].[Mg+2] [Comparative Example 1, L-ascorbic acid 2-phosphate magnesium salt]
clouding in in-solution stability test 1 ([1]; 50° C.): more distinguished clouding was observed
In-solution Stability Test 1 50° C. [1]: C
In-solution Stability Test 1 Room Temperature (20° C.) [1]: B
clouding in in-solution stability test 1 ([1]; room temperature (20° C.)): clouding was observed
clouding in in-solution stability test 2 ([2]; 50° C.): more distinguished clouding was observed
In-solution Stability Test 2 50° C. [2]: C
In-solution Stability Test 2 Room Temperature (20° C.) [2]: B
clouding in in-solution stability test 2 ([2]; room temperature (20° C.)): clouding was observed
